From patent US9447108B2 (SZEGEDI TUDOMÁNYEGYETEM, priority 2013, dated 2016)
Like-named read-outs stand apart in the source and are kept apart here.

Key:
[1] = molecular target: T1, μ-opioid receptors (Rattus norvegicus, UniProt P33535); assay: Receptor binding assay, [3H]DAMGO displacement in rat brain membranes; conditions: for Ki^δ/Ki^μ: selectivity ratio δ/μ
T1 construct: A crude membrane fraction was prepared from Wistar rat brains and spinal cords; from tissue; host or cells: Wistar rat brain (without cerebellum), crude membrane fraction
T1 sequence (P33535 whole entry): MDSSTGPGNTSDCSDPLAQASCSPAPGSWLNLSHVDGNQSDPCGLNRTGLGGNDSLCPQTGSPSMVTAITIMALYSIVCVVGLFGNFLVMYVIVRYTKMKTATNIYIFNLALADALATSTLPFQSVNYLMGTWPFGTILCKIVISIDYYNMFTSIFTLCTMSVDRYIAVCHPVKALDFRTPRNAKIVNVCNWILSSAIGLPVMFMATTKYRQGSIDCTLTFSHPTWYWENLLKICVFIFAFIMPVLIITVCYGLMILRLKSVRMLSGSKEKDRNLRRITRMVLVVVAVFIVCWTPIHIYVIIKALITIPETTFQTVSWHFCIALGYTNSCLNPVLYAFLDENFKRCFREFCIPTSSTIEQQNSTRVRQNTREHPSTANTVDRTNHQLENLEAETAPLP

[2] = molecular target: T2, δ-opioid receptors (Rattus norvegicus, UniProt P33533); assay: Receptor binding assay, [3H]Ile5,6-deltorphin-2 displacement in rat brain membranes
T2 construct: A crude membrane fraction was prepared from Wistar rat brains and spinal cords; from tissue; host or cells: Wistar rat brain (without cerebellum), crude membrane fraction
T2 sequence (P33533 whole entry): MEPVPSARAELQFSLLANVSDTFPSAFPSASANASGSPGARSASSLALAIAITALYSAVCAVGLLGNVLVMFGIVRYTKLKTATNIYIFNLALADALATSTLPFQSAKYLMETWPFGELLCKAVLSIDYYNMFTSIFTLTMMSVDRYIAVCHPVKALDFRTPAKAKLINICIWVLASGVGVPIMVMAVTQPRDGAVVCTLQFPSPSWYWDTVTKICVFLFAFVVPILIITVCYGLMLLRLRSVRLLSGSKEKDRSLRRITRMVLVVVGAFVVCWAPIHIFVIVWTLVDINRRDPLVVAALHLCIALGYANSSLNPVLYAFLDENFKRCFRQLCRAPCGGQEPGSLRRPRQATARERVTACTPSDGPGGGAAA

[3] = test system: rats; assay: Behavioral nociceptive testing, paw-withdrawal test (PWD), heat pain threshold; assay type: in vivo, rat; conditions: for antinociception, potency and dose dependence: s.c., 0.3-10 mg/kg
Method: The paw-withdrawal test (PWD) was used to measure the heat pain threshold after the treatments. A detailed description of this model was published by Hargreaves et al. (Hargreaves, K.; Dubner, R.; Brown, F.; Flores, C.; Joris, J. Pain; 32, 77 1988). Briefly, rats were placed on a glass surface in a plastic chamber and were allowed to acclimatize to their environment for 15-30 min before testing. The baseline hind paw-withdrawal latencies (baseline values at 0 min determined two times) were then obtained. A heat stimulus was directed onto the plantar surface of each hind paw and the intensity of the thermal stimulus was adjusted to derive an average baseline latency of approximately 10 s (cut-off time 20 s). Then the animals were treated subcutaneously with different doses of ligands (0.3-10 mg/kg). The nociceptive threshold was determined at 15-min intervals for 120 min.
Data are presented as means±SEM. The mean of the two sides and the mean of two time points (15-30; 45-60; 75-90 and […]) were evaluated. The results were analyzed using a two-way ANOVA (ANalysis Of VAriances) (factors: treatment and time with repeated measurements). Subsequent analysis was performed using Fisher-LSD test. A p-value less than 0.05 was considered significant. Data were analyzed using […] 7.1. software (Statsoft Inc., Tulsa, Okla.).

[4] = 10 mg/kg s.c., 0 min (baseline)

Molecule	Time course of the antinociceptive effects (paw-withdrawal latency) ([3]; 3 mg/kg s.c., 0 min (baseline))	Time course of the antinociceptive effects (paw-withdrawal latency) ([3]; 3 mg/kg s.c., 30 min)	Time course of the antinociceptive effects (paw-withdrawal latency) ([3]; 3 mg/kg s.c., 60 min)	Time course of the antinociceptive effects (paw-withdrawal latency) ([3]; 3 mg/kg s.c., 90 min)	Time course of the antinociceptive effects (paw-withdrawal latency) ([3]; 3 mg/kg s.c., 120 min)	Time course of the antinociceptive effects (paw-withdrawal latency) [3, 4]	Time course of the antinociceptive effects (paw-withdrawal latency) ([3]; 10 mg/kg s.c., 30 min)	Time course of the antinociceptive effects (paw-withdrawal latency) ([3]; 10 mg/kg s.c., 60 min)	Time course of the antinociceptive effects (paw-withdrawal latency) ([3]; 10 mg/kg s.c., 90 min)	Time course of the antinociceptive effects (paw-withdrawal latency) ([3]; 10 mg/kg s.c., 120 min)	antinociception, potency and dose dependence ([3]; in words)	other results
COc1ccc2c3c1O[C@H]1[C@@H](O)CC[C@H]4[C@@H](C2)N(C)CC[C@@]341 [Dihydrocodeine]	10.1 s	11.1 s	10.7 s	10.5 s	10.3 s	9.9 s	13.4 s	13.6 s	10.9 s	9.8 s	–	Ki [1]: 122 ± 15 nM; Ki [2]: > 10 µM
CCOc1ccc2c3c1O[C@H]1[C@@H](O)CC[C@H]4[C@@H](C2)N(C)CC[C@@]341 [Dihydroethylmorphine]	10.1 s	11.3 s	10.9 s	10.2 s	9.9 s	10.2 s	11.5 s	12.3 s	12.0 s	10.4 s	–	–
CC(=O)Oc1ccc2c3c1O[C@H]1[C@@H](OC(C)=O)CC[C@H]4[C@@H](C2)N(C)CC[C@@]341 [Dihydroheroine]	10.1 s	17.3 s	15.6 s	12.9 s	10.7 s	–	–	–	–	–	–	–
CN1CC[C@]23c4c5ccc(O)c4O[C@H]2[C@@H](O)CC[C@H]3[C@H]1C5 [Dihydromorphine]	10.2 s	13.1 s	13.9 s	14.1 s	13.3 s	10.1 s	19.4 s	20.6 s	15.3 s	14.1 s	–	–
[2H][C@@H]1[C@H]([2H])[C@H]2[C@H]3Cc4ccc(O)c5c4[C@@]2(CCN3C)[C@@H](O5)[C@H]1O [Example 1, (5α,6α,7β,8β)-3,6-dihydroxy-4,5-epoxy-17-methyl-(7,8-^2H2)-morphinan]	10.1 s	14.1 s	14.9 s	14.9 s	14.1 s	9.8 s	21.3 s	22.1 s	16.8 s	16.1 s	more potent	antinociceptive effect at 3 mg/kg, efficacy compared to morphine ([3]; 3 mg/kg s.c., in words): more effective than morphine; duration of antinociceptive effect compared to other drugs ([3]; 3 mg/kg s.c., in words): more prolonged effects compared to other drugs
[2H][C@@H]1[C@H]([2H])[C@H]2[C@H]3Cc4ccc(OC)c5c4[C@@]2(CCN3C)[C@@H](O5)[C@H]1O [Example 2, (5α,6α,7β,8β)-4,5-epoxy-6-hydroxy-3-methoxy-17-methyl-(7,8-^2H2)-morphinan]	9.9 s	12.1 s	11.9 s	11.7 s	11.8 s	10.1 s	14.2 s	14.8 s	14.9 s	14.1 s	lower potency	Ki [1]: 34.1 ± 1.08 nM; affinity to μ-opioid receptors compared to the corresponding hydrogenated derivative ([1]; in words): higher affinity to μ-opioid receptors than the corresponding hydrogenated derivatives; Ki [2]: > 10 µM; antinociceptive effect compared to non-deuterated analogues ([3]; 10 mg/kg s.c., in words): increased and prolonged the effect
[2H][C@@H]1[C@H]([2H])[C@H]2[C@H]3Cc4ccc(OC(C)=O)c5c4[C@@]2(CCN3C)[C@@H](O5)[C@H]1OC(C)=O [Example 4, (5α,6α,7β,8β)-3,6-diacetoxy-4,5-epoxy-17-methyl-(7,8-^2H2)-morphinan]	9.7 s	19.7 s	17.9 s	14.3 s	11.4 s	–	–	–	–	–	more potent	Ki [1]: 2.89 ± 0.7 nM; affinity to μ-opioid receptors compared to morphine ([1]; in words): higher affinity to μ-opioid receptors than the morphine; Ki^δ/Ki^μ [1]: 73; Ki [2]: 0.211 ± 0.024 µM; duration of antinociceptive effect compared to other drugs ([3]; 3 mg/kg s.c., in words): more prolonged effects compared to other drugs
[2H][C@H]1C(=O)[C@@H]2Oc3c(OC)ccc4c3[C@@]23CCN(C)[C@H](C4)[C@]3(O)[C@H]1[2H] [Example 5, (5α,7β,8β,14β)-4,5-epoxy-14-hydroxy-3-methoxy-17-methyl-(7,8-^2H2)-morphinan-6-one]	9.9 s	13.3 s	13.7 s	13.6 s	12.1 s	–	–	–	–	–	–	–
CN1CC[C@]23c4c5ccc(O)c4O[C@H]2[C@@H](O)C=C[C@H]3[C@H]1C5 [Morphine]	10.1 s	14.4 s	13.9 s	13.2 s	12.8 s	9.9 s	18.2 s	18.8 s	14.4 s	10.5 s	–	–
COc1ccc2c3c1O[C@H]1C(=O)CC[C@@]4(O)[C@@H](C2)N(C)CC[C@]314 [Oxycodone]	9.8 s	12.2 s	12.6 s	11.9 s	10.6 s	–	–	–	–	–	–	–
(5α,6α,7β,8β)-4,5-epoxy-3-ethoxy-6-hydroxy-17-methyl-(7,8-^2H2)-morphinan [Example 3]	10.0 s	12.2 s	11.6 s	11.4 s	11.1 s	10.1 s	12.1 s	13.1 s	12.9 s	11.1 s	lower potency	Ki ([1]; [3H]DAMGO, rat brain membranes, read-out: Ki^μ): 205 ± 63.1 nM; Ki^δ/Ki^μ [1]: 30; Ki ([2]; [3H]Ile5,6-deltorphin-2, rat brain membranes, read-out: Ki^δ): 6.12 ± 0.845 µM; antinociceptive effect compared to non-deuterated analogues ([3]; 10 mg/kg s.c., in words): increased and prolonged the effect
